Where “and” joins values, the source holds several entries; their conditions need not be identical. Equal entries are not always repeated. Entries after “also recorded” stand apart in the source; their conditions may differ. Where two headings read alike, the source gives them in different places.
How the values were obtained:
Type in all cases: physicochemical
[1] = Water content of saturated lyotropic phase by Karl Fisher titration; details: 300 mg surfactant in excess water, equilibrated at 40° C.; mean of three samples ± SD
Protocol: The mass of water incorporated in the lyotropic phase was determined by preparing a 300 mg sample of surfactant in excess water, equilibrating at 40° C., and testing the water content of the lyotropic phase by Karl Fisher titration. Values reported are the mean of three separate samples i standard deviation, unless otherwise indicated.

[2] = Flooding experiment: lyotropic phase formed in excess water at 40° C.; also: key: Hll denotes reverse hexagonal phase; details: sample maintained at 40° C., crossed polarised light, 200x
Protocol: (§1) Preliminary assessment of the phase behaviour of a selected compound was conducted using the ‘flooding’ technique. The flooding technique involves placing the compound between a coverslip and microscope slide and introducing water to the sample to establish a water concentration gradient through the sample. […] If the experiment is conducted on a hot stage, the temperature range over which the particular lyotropic phases exist can also be determined. The phase behaviour can be observed under normal or cross-polarised light using an optical microscope. […] For the purpose of the present invention it was especially useful for identifying which phase was present at the boundary with excess water.
For the surfactant to be useful it preferably forms a viscous lyotropic phase in the presence of excess water. The lyotropic phase formed by the surfactant in excess water was determined by flooding experiments, in which a small amount of lipid (typically 5 mg) is placed between a glass microscope slide and coverslip and water introduced to the sample by capillary action, with the sample maintained at 40° C. by means of a hot stage. Observation under crossed polarised light at 200× magnification allows identification of the phase formed by the visible birefringent texture, or lack thereof.

[3] = Lyotropic behaviour: flooding technique on hot stage, optical microscopy under crossed polarised light
Protocol: as §1

[4] = flooding with water, temperature as stated per example

| SMILES | % water (w/w) in saturated lyotropic phase [1] | Phase formed in excess water [2] | Lyotropic phase formed at the interface with water [3, 4] | Temperature at which the hexagonal phase begins to melt ([3]; flooding, heating) [°C] | Temperature at which the hexagonal phase is completely melted / sample completely isotropic ([3]; flooding, heating) | Temperature at which the lyotropic phase forms / begins to form on contact with water ([3]; flooding, heating) | Temperature at which the hexagonal phase reappears on cooling ([3]; flooding, cooling) [°C] | Temperature at which the isotropic cubic phase reforms on cooling ([3]; flooding, cooling) [°C] | Temperature at which the isotropic cubic phase has disappeared ([3]; flooding, heating) [°C] | Lyotropic phase formed at the interface with water [3] | Temperature at which the lyotropic phase forms / begins to form on contact with water [3] [°C] |
| --- | --- | --- | --- | --- | --- | --- | --- | --- | --- | --- | --- |
| CC(C)CCCC(C)CCCC(C)CCNC(N)=O (centres unmarked) [Example 4, 3,7,11-Trimethyl-dodecyl urea] | 8.1 ± 2.5 % (w/w) | Hll | reverse hexagonal phase | 55 | > 70 °C | 30 °C | – | – | – | – | – |
| CC(C)CCCC(C)CCCC(C)CCCC(C)CCNC(N)=O (centres unmarked) [Example 3, 3,7,11,15Tetramethyl-hexadecyl urea] | 28.4 ± 2.3 % (w/w) | Hll | reverse hexagonal phase | 72.6 | 82.1 °C | 25 °C | – | – | – | – | – |
| CC(C)CCCC(C)CCCC(C)CCCC(C)CC(=O)OCC(O)CO (centres unmarked) [3,7,11,15-tetramethyl-hexadecanoic acid 1-glycerol ester] | 23.1 ± 3.2 % (w/w) | Hll | – | – | – | – | – | – | – | – | – |
| CC(C)CCCC(C)CCCC(C)CCCC(C)CCOC(=O)C(O)CO (centres unmarked) [Example 6, 2,3-Dihydroxypropionic acid 3,7,11,15-tetramethyl-hexadecyl ester] | 28.7 ± 2.5 % (w/w) | Hll | reverse hexagonal phase | ~40 | 48 °C | room temperature | – | – | – | – | – |
| CCCCCCCC/C=C\CCCCCCCCOC(=O)C(O)CO (centres unmarked) [Example 5, 2,3-Dihydroxypropionic acid octadec-9-enyl ester] | 16.8 ± 3.9 % (w/w) | Hll | – | 65 | 80 °C | 30 °C | 77 | 40 | 70 | – | – |
| CC(C)CCCC(C)CCCC(C)CCOC(=O)C(O)CO (centres unmarked) [2,3-Dihydroxypropionic acid 3,7,11-trimethyl-dodecyl ester] | 24.7 ± 0.7 % (w/w) | Hll | – | – | – | – | – | – | – | – | – |
| CCCCCCCC/C=C\CCCCCCCCNC(=O)NC(N)=O [Example 9, cis-octadec-9-enyl biuret] | – | – | hexagonal phase | – | 107 °C | 85 °C | – | – | – | – | – |
| CC(C)CCCC(C)CCCC(C)CCCC(C)CC(=O)NC(C)(CO)CO (centres unmarked) [Example 7, 3,7,11,15-tetramethyl-hexadecanoic acid (1,1-bis-hydroxymethyl-ethyl)-amide] | – | – | isotropic phase; also recorded: hexagonal phase | 25.5 | 26.7 °C | 10-15 °C | – | – | – | – | – |
| CCCCCCCC/C=C\CCCCCCCCNC(N)=O [Example 10, cis-octadec-9enyl urea] | – | – | reverse hexagonal phase | – | 110 °C | 61 °C | – | – | – | – | – |
| CC(C)CCCC(C)CCCC(C)CCCC(C)CCN(CCO)C(N)=O (centres unmarked) [Example 1, 1-(3,7,11,15tetramethyl-hexadecyl)-1-(2-hydroxyethyl) urea] | – | Hll | reverse hexagonal phase | 50.9 | 58.1 °C | 20 °C | 51.1 | – | – | – | – |
| CCCCCCCC/C=C\CCCCCCCCNC(=O)NCCO [Example 8, 1-(2-Hydroxyethyl)-3-(cis-octadec-9-enyl) urea] | – | – | – | – | ~67 °C | – | – | – | – | isotropic phase | 59.5 |
| CCCCC/C=C\C/C=C\CCCCCCCCNC(N)=O [Example 11, cis, cis-octadec-9,12-dienyl urea] | – | – | reverse hexagonal phase | – | 92-93 °C | 53 °C | – | – | – | – | – |
| CC(C)CCCC(C)CCCC(C)CCCC(C)CCNC(=O)NCCO (centres unmarked) [Example 2, 1-(3,7,11,15-tetramethyl-hexadecyl)-3-(2-hydroxyethyl) urea] | 14.3 ± 4.6 % (w/w) | Hll | reverse hexagonal phase | 40.4 | 58 °C and 57.3 °C | below 8 °C | 44.1 | – | – | – | – |

From patent publication US20050249665A1, “Urea-, glycerate- and, hydroxyamide-headed hydrocarbon chain lyotropic phases forming surfactants” (DBL Australia Pty Ltd., priority 2002, published 2005)
